Each structure is given as a SMILES string.

This passage reports T/C results from ChEMBL document CHEMBL1158658, “Pyrrolizidine Alkaloids From Middle Eastern Plants” (1979).

Assay type in all cases: functional
For experiment [1], the system named is P388. Nature of the experiment: Antitumor activity against mouse P388 cells xenografted in male organism at 400 mg/kg relative to control.
The subject of experiment [2] is P388. The experiment is described as follows: Antitumor activity against mouse P388 cells xenografted in male organism at 800 mg/kg relative to control.
In experiment [3] the test system is P388. Nature of the experiment: Antitumor activity against mouse P388 cells xenografted in female organism at 200 mg/kg relative to control.
The subject of experiment [4] is P388. Nature of the experiment: Antitumor activity against mouse P388 cells xenografted in female organism at 400 mg/kg relative to control.
Experiment [5] concerns P388. Nature of the experiment: Antitumor activity against mouse P388 cells xenografted in female organism at 800 mg/kg relative to control.
The test system of experiment [6] is P388. The experiment is described as follows: Antitumor activity against mouse P388 cells xenografted in male organism at 200 mg/kg relative to control.
Experiment [7] relates to P388. The experiment is described as follows: Antitumor activity against mouse P388 cells xenografted in male organism at 100 mg/kg relative to control.
For experiment [8], the system named is P388. The experiment is described as follows: Antitumor activity against mouse P388 cells xenografted in female organism at 50 mg/kg relative to control.
In experiment [9] the test system is P388. Nature of the experiment: Antitumor activity against mouse P388 cells xenografted in female organism at 100 mg/kg relative to control.

`CC(C)[C@](O)(C(=O)OCC1=CC[N+]2([O-])CC[C@@H](O)[C@@H]12)[C@H](C)O` (stereo not given in full) [INDICINE N-OXIDE]: the T/C with P388 [1] is listed as 165; in the experiment with P388 [2], 187; in the experiment on P388 [3], 130; with P388 [4], 136; with P388 [5], 109; with P388 [6], 147.

In the case of `CO[C@@H](C)[C@](O)(C(=O)OCC1=CC[N+]2([O-])CC[C@H](O)[C@@H]12)C(C)(C)O` (stereo not given in full), the T/C in the experiment with P388 [1] is recorded as 129; in the experiment with P388 [2], 111; in the experiment with P388 [7], 111; with P388 [6], 102.

`CC(C)[C@@](O)(C(=O)OCC1=CC[N+]2([O-])CC[C@H](O)[C@@H]12)[C@H](C)O` (stereo not given in full): the T/C in the experiment with P388 [3] worked out at 118; in the experiment on P388 [8] it was 109; in the experiment on P388 [9] it was 113; in the experiment with P388 [4], 138; in the experiment on P388 [5], 145.
